Results published in patent publication US20120004199A1, “SCAFFOLDS” (priority 2009, published 2012).

What was measured:
[1] = test system: human fibroblast (HDF); test: MTT-ESTA assay of cell metabolic activity, 2D HDF cultures; assay type: cell-based; conditions: for % Viability: 24 h exposure, HDF; for concentration showing a cytotoxic response: fibroblast viability
Protocol: (§1) Normal human fibroblasts were isolated and cultured as described previously (Ralston et al., 1997). […] Keratinocytes were cultured in Dulbecco's modified Eagle's medium (DMEM) supplemented with 10% (v/v) foetal calf serum (FCS), 2 mM glutamine, 0.625 μg/ml amphotericin B, 100 IU/ml penicillin and 100 μg/ml streptomycin.

[2] = test system: NF-κB/p65; test: NF-κB/p65 activation immunolabelling in 2D fibroblast cultures stimulated with LPS or TNF-α; assay type: cell-based, human; conditions: for effect on LPS induced NF-κB activation / effect on TNF induced NF-κB activation: 10^−4 and 10^−3M; for effect on LPS induced NF-κB activation: LPS 100 ng/mL; for effect on TNF induced NF-κB activation: TNF-α 1000 U/mL
Protocol: LPS from E. coli serotype O111:B4 (Sigma-Aldrich) at 100 ng/mL or TNF-α (Sigma-Aldrich) at 1000 U/mL was used as a positive control for activation of NF-κB in fibroblasts. In preliminary experiments, Ibuprofen (10^−3 and 10^−4 M, sodium salt and isomer mixture; Sigma-Aldrich, UK) was used to downregulate NF-κB activation. Then the 10% Ibuprofen loaded PLGA scaffolds (75/25, 50/50 and a 1:1 blend of these two) were examined. Negative controls were produced by incubating cells in normal DMEM. All experiments were performed in triplicate.
Following the Ibuprofen treatments, monolayers were washed in PBS and the cells were fixed in 10% formalin (500 μL per well) for 30 minutes. Cell monolayers were washed a further three times in PBS, prior to cell permeabilisation with 0.1% Triton X100 for 20 minutes. Subsequently, cells were washed three times with PBS. Unreactive binding sites were blocked by adding a 5% dried milk powder solution to each well for 1 hour. A further three washes in PBS were performed prior to incubation with the first antibody solution. The first antibody (rabbit polyclonal antihuman IgG NF-κB p65 C-20, Santa Cruz Biotechnology Inc., CA) was added at a concentration of 1:100 in 1% PBS-dried milk powder. Cells were incubated in the antibody solution at 4° C. for 18 hours. The cells were washed three more times in PBS. Afterwards, cells were incubated with biotinylated goat anti-rabbit (1:1000) (Vector Laboratories, CA) in 1% PBS-milk powder. The cells were then washed a further three times in PBS. Streptavidin-FITC (Vector Laboratories, CA) conjugate was then added to the wells at a concentration of 1:100 in PBS. A further three washes in PBS were performed. After this time, the fluorescent staining were visualised using an AXON image express system (Axon Instruments/Molecular Devices, Union City, Calif.). Briefly, fluorescence micrographs of immunolabelled samples were taken using epifluorescent illumination at λex 495 nm λem 515 nm (for FITC visualisation); λex 358 nm λem 461 nm (for DAPI visualisation). DAPI fluorescence was used to identify nuclear position. The boundary between nucleus and cytoplasm was delimited by analysis software (ImageXpress Console 1.0) using DAPI micrographs in a sample of at least 100 cellular counts per visual field. Within the defined region, the intensity of FITC (NF-κB/p65) labelling was used to calculate activation for each micrograph and sample. […] The analysis of the micrographs was done in triplicate.

[3] = MTT-ESTA assay of cell metabolic activity, 2D HDF cultures; assay type: cell-based, human; conditions: human, normal human dermal fibroblasts (HDF), 2D monolayer culture, 24 h exposure, HDF
Protocol: as §1

Row | Compound | % Viability ([1]; Treatment 10^−2) | % Viability ([1]; Treatment 10^−3) | % Viability ([1]; Treatment 10^−4) | % Viability ([1]; Treatment 10^−5) | % Viability ([1]; Treatment 10^−6) | concentration showing a cytotoxic response [1] | effect on LPS induced NF-κB activation [2] | effect on TNF induced NF-κB activation [2] | viability at 24 h ([3]; Treatment 10^−3) | viability at 24 h ([3]; Treatment 10^−4) | viability at 24 h ([3]; Treatment 10^−5) | viability at 24 h ([3]; Treatment 10^−6) | activation of NF-κB ([2]; stimulus alone, LPS 100 ng/mL or TNF-α 1000 U/mL)
1 | CC(C)Cc1ccc(C(C)C(=O)O)cc1 (racemic) [Ibuprofen isomer mixture, 2-(4-isobutylphenyl)propionic acid] | 7.20% | 101.11% | 108.56% | 111.80% | 109.43% | 10^−2 M | significantly reducing the response | significantly reducing the response |  |  |  |  | 
2 | CC(C)Cc1ccc(C(C)C(=O)[O-])cc1.[Na+] (centres unmarked) [Ibuprofen Sodium Salt] | 38.25% |  |  |  |  | 10^−2 M | significantly reducing the response | significantly reducing the response | 90.3% | 98.2% | 100% | 102% | 
3 | TNF-α |  |  |  |  |  |  |  |  |  |  |  |  | 80%
